Experimental data: ChEMBL document CHEMBL1136484, “3D-QSAR studies on natural acetylcholinesterase inhibitors of Sarcococca saligna by comparative molecular field analysis (CoMFA)” (Bioorg Med Chem Lett, 2003)

Biological target: Acetylcholinesterase (Homo sapiens, UniProt P22303)
Test: Compound was tested for the in silico inhibition of acetylcholinesterase

Sequence of Acetylcholinesterase (P22303 whole entry): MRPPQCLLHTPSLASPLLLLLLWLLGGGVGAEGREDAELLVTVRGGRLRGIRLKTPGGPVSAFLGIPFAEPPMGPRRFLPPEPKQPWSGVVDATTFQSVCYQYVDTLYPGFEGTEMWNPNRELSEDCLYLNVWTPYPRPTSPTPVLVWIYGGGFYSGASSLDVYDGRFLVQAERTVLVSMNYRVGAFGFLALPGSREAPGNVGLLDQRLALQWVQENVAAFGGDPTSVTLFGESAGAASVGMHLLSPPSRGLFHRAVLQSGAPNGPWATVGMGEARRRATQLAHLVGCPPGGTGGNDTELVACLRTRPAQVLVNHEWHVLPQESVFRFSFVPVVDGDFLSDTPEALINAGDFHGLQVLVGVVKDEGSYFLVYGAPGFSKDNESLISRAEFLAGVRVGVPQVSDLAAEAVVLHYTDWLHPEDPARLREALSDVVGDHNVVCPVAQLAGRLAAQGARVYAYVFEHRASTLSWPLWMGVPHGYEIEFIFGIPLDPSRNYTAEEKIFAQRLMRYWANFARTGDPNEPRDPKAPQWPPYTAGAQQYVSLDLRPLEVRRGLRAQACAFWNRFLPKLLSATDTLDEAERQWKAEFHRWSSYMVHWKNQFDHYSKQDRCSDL

Structure (SMILES)	IC50 [µM]
C/C=C(\C)C(=O)NC1=CC[C@@]2(C)[C@@H](CC[C@H]3C4CC[C@H]([C@H](C)N(C)C)[C@@]4(C)CC[C@@H]32)C1=O (stereo not given in full)	13.8
CC(=O)N(C)[C@@H](C)[C@H]1CC[C@H]2[C@@H]3CC[C@H]4C[C@@H](N(C)C)CC[C@]4(C)[C@H]3CC[C@]12C	50.1
C/C=C(\C)C(=O)N[C@H]1CC[C@@]2(C)C(=CC[C@H]3C4=CC[C@H]([C@H](C)N(C)C)[C@@]4(C)CC[C@@H]32)C1=O	5.75
C/C=C(\C)C(=O)N[C@@H]1[C@H](O)C2CC[C@H]3C4=CC[C@H]([C@H](C)N(C)C)[C@@]4(C)CC[C@@H]3[C@@]2(C)C[C@@H]1O (stereo not given in full)	33.1
C[C@H](NC=O)[C@H]1CC[C@H]2[C@@H]3CC[C@H]4C[C@@H](N(C)C)CC[C@]4(C)[C@H]3CC[C@]12C	6.46
C[C@@H]([C@H]1CC[C@H]2[C@@H]3CC=C4C[C@@H](N(C)C)CC[C@]4(C)[C@H]3CC[C@]12C)N(C)C	39.8
C/C=C(\C)C(=O)N[C@H]1C(OC(C)=O)C[C@@]2(C)C(CC[C@H]3C4CC=C([C@H](C)N(C)C)[C@@]4(C)CC[C@@H]32)[C@H]1OC(C)=O (stereo not given in full)	50.1
CO[C@H]1CC[C@@]2(C)C(=CC[C@H]3[C@@H]4CC[C@H]([C@H](C)N(C)C)[C@@]4(C)CC[C@@H]32)C1	42.7
CO[C@@H]1CC2=CC[C@@H]3[C@H](CC[C@]4(C)C([C@H](C)N(C)C)=CC[C@@H]34)[C@@]2(C)C[C@@H]1O	251
C/C(=C\C(=O)N(C)[C@H]1CC[C@@]2(C)[C@@H](CC[C@@H]3[C@@H]2CC[C@]2(C)[C@@H]([C@H](C)N(C)C)CC[C@@H]32)C1)C(C)C	6.46
CC(=O)N(C)[C@H]1CC[C@@]2(C)[C@@H](CC[C@@H]3[C@@H]2CC[C@]2(C)[C@@H]([C@H](C)N(C)C)CC[C@@H]32)C1	70.8
C/C(=C\C(=O)N(C)[C@H]1CC[C@@]2(C)[C@@H](CC[C@@H]3[C@@H]2CC[C@]2(C)C([C@H](C)N(C)C)=CC[C@@H]32)C1)C(C)C	6.17
C/C=C(\C)C(=O)N[C@H]1CC[C@@]2(C)C(=CC[C@H]3[C@@H]4CC[C@H]([C@H](C)N(C)C)[C@@]4(C)CC[C@@H]32)C1=O	7.08
C/C=C(\C)C(=O)N[C@@H]1[C@H](OC(C)=O)[C@@H]2CC[C@H]3C4=CC[C@H]([C@H](C)N(C)C)[C@@]4(C)CC[C@@H]3[C@@]2(C)C[C@@H]1O	61.7
CN[C@H]1CC[C@@]2(C)C(CC[C@H]3[C@@H]4CC[C@H]([C@H](C)N(C)C)[C@@]4(C)CC[C@@H]32)C1 (stereo not given in full)	6.17
CC(=O)O[C@@H]1C2CC[C@H]3C4CC=C([C@H](C)N(C)C)[C@@]4(C)CC[C@@H]3[C@@]2(C)CC[C@@H]1NC(=O)C=C(C)C (stereo not given in full)	5.25
C[C@@H]([C@H]1CC[C@H]2[C@@H]3CC[C@H]4C(=O)C(NC(=O)c5ccccc5)=CC[C@]4(C)[C@H]3CC[C@]12C)N(C)C	5.25
C[C@@H]([C@H]1CC[C@H]2[C@@H]3CC[C@H]4C[C@@H](N(C)C(=O)/C=C/c5ccccc5)CC[C@]4(C)[C@H]3CC[C@]12C)N(C)C [SALIGCINNAMIDE]	19.5
C/C=C(\C)C(=O)N[C@@H]1C=C2CC[C@H]3[C@@H]4CC[C@H]([C@H](C)N(C)C)[C@@]4(C)CC[C@@H]3[C@@]2(C)C[C@@H]1O	15.8
C/C=C(\C)C(=O)N[C@@H]1[C@H](OC(C)=O)[C@@H]2CC[C@@H]3[C@H](CC[C@]4(C)[C@@H]([C@H](C)N(C)C)CC[C@@H]34)[C@@]2(C)C[C@@H]1O	182
CC(=O)N(C)[C@@H](C)[C@H]1CC[C@H]2[C@@H]3CC=C4C[C@@H](N(C)C)CC[C@]4(C)[C@H]3CC[C@]12C	20
C[C@@H]([C@H]1CC[C@H]2[C@@H]3CC[C@H]4C[C@@H](NC(=O)c5ccccc5)CC[C@]4(C)[C@H]3CC[C@]12C)N(C)C [EPIPACHYSAMINE D]	28.8
CC(=O)N[C@H]1CC[C@@]2(C)[C@@H](CC[C@@H]3[C@@H]2CC[C@]2(C)[C@@H]([C@H](C)N(C)C)CC[C@@H]32)C1	69.2
CN[C@H]1CC[C@@]2(C)[C@@H](CC[C@@H]3[C@@H]2CC[C@]2(C)C([C@H](C)N(C)C)=CC[C@@H]32)C1	20.4
C[C@@H]([C@H]1CC[C@H]2[C@@H]3CC[C@H]4C[C@@H](NC(=O)c5ccccc5)[C@@H](O)C[C@]4(C)[C@H]3CC[C@]12C)N(C)C	77.6
CC(=O)O[C@H]1[C@@H](NC(=O)c2ccccc2)[C@@H](O)C[C@]2(C)[C@H]3CC[C@]4(C)[C@@H]([C@H](C)N(C)C)CC[C@H]4[C@@H]3CC[C@@H]12	229
C/C=C(\C)C(=O)N[C@@H]1C=C2CC[C@H]3C4=CC[C@H]([C@H](C)N(C)C)[C@@]4(C)CC[C@@H]3[C@@]2(C)CC1	7.76
C/C=C(\C)C(=O)N[C@H]1CC[C@@]2(C)C(=CC[C@H]3[C@@H]4CC[C@H]([C@H](C)N(C)C)[C@@]4(C)CC[C@@H]32)[C@H]1O	30.2
CN[C@@H](C)C1=CC[C@H]2[C@@H]3CC=C4C[C@@H](OC)CC[C@]4(C)[C@H]3CC[C@]12C	83.2
CO[C@H]1CC[C@@]2(C)C(=CC[C@@H]3[C@@H]2CC[C@]2(C)C([C@H](C)N(C)C=O)=CC[C@@H]32)C1	49
